Experimental data reported in patent publication US20090169538A1, “Methods of Treating or Preventing Tissue Damage Caused by Increased Blood Flow” (REGENERX BIOPHARMACEUTICALS, INC., priority 2006, published 2009).

Tests used:
[1] = molecular target: T1, PINCH (Mus musculus, UniProt Q99JW4); experiment: phage display ELISA confirmation and coimmunoprecipitation with PINCH; format: binding
T1 construct: myc or FLAG (co-immunoprecipitation only); made in house; host or cells: T7 phage amplified in E. coli BLT5615 (ELISA); Cos and 10T1/2 cells transfected (co-IP)
T1 sequence (Q99JW4 whole entry): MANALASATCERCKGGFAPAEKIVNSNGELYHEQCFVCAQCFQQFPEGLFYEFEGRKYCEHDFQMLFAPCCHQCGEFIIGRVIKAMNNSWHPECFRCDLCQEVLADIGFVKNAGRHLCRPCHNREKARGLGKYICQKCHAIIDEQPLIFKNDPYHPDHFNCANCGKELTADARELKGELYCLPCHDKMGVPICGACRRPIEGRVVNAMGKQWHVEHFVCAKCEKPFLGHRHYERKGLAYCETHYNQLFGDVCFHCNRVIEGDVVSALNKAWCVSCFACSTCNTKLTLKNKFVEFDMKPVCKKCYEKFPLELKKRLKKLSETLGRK
From the text: To investigate the potential mechanisms through which thymosin β4 might be influencing cell migration and survival events, thymosin β4 interacting proteins were searched. The amino-terminus of […] was fused with affi-gel beads resulting in exposure of the carboxy-terminus that allowed identification of previously unknown interacting proteins but prohibited association with actin. An E9.5-12.5 mouse heart T7 phage cDNA library was synthesized and screened by phage display and thymosin β4-interacting clones were enriched and confirmed by ELISA. PINCH, a LIM domain protein, was most consistently isolated in this screen and interacted with thymosin β4 in the absence of actin (ELISA). PINCH and integrin linked kinase (ILK) interact directly with one another and indirectly with the actin cytoskeleton as part of a larger complex involved in cell-extracellular matrix interactions known as the focal adhesion complex. PINCH and ILK are required for cell motility and for cell survival, in part by promoting phosphorylation of the serine-threonine kinase Akt/protein kinase B, a central kinase in survival and growth signaling pathways. […] The PINCH interaction with thymosin β4 mapped to the fourth and fifth LIM domains of PINCH while the amino terminal ankryin domain of ILK was sufficient for thymosin β4 interaction. […]

[2] = system: primary rat neonatal cardiomyocytes; experiment: primary neonatal cardiomyocytes cultured on laminin-coated glass; format: cell-based
Method: To test the response of post-natal cardiomyocytes, primary rat neonatal cardiomyocytes were cultured on laminin-coated glass and treated the cells with phosphate buffered saline (PBS) or thymosin β4. […] In addition to thymosin β4's effects on myocardial cell migration, a similar effect was observed on endothelial migration in the embryonic heart explant assay.
Primary culture of neonatal cardiomyocytes typically survived for approximately one to two weeks with some cells beating up to two weeks when grown on laminin-coated slides in our laboratory. […] In addition, the rate of beating was consistently faster in thymosin β4-treated neonatal cardiomyocytes (95 vs. 50 beats per minute, p<0.02), indicating either a change in cell-cell communication or more vigorous cardiomyocytes.

Substance: thymosin β4
- interaction with PINCH in the absence of actin (ELISA) ([1]; phage display clones, ELISA): interacted
- co-precipitation with PINCH ([1]; plasmids transfected in cultured cells): co-precipitated
- migrational distance of neonatal cardiomyocytes ([2]; compared to PBS control, p<0.05): significantly increased
- survival, rhythmically contracting myocytes visible ([2]; laminin-coated slides, untreated cultures approximately one to two weeks): up to 28 days
- rate of beating ([2]; vs. 50 in control, p<0.02): 95 beats per minute
